Laboratory results from the NIST ThermoML archive (doi:10.1021/je060271a).
Where “and” joins values, the source holds several entries; their conditions need not be identical. Equal values may be shown once.

Details: Liquid, Vibrating tube method

CCCCCC(=O)OCC(COC(=O)CCCCC)(COC(=O)CCCCC)COC(=O)CCCCC [pentaerythritol tetrahexanoate]
Details	mass density
303.15 K, 32445 kPa	1007.6 kg/m3
303.15 K, 32464 kPa	1007.7 kg/m3
303.15 K, 32483 kPa	1007.6 kg/m3
303.15 K, 32506 kPa	1007.5 kg/m3
303.15 K, 32525 kPa	1007.6 kg/m3
303.15 K, 32544 kPa	1007.5 kg/m3
303.15 K, 32567 kPa	1007.6 kg/m3
303.15 K, 32586 kPa	1007.6 kg/m3
303.15 K, 32605 kPa	1007.7 kg/m3
303.15 K, 32624 kPa	1007.6 kg/m3
303.15 K, 32647 kPa	1007.7 kg/m3
303.15 K, 32808 kPa	1007.7 kg/m3
303.15 K, 32832 kPa	1007.7 kg/m3
303.15 K, 32851 kPa	1007.8 kg/m3
303.15 K, 32871 kPa	1007.7 kg/m3
303.15 K, 32895 kPa	1007.8 kg/m3
303.15 K, 33911 kPa	1008.4 kg/m3
303.15 K, 33938 kPa	1008.4 kg/m3
303.15 K, 33963 kPa	1008.4 kg/m3
303.15 K, 33989 kPa	1008.3 kg/m3
303.15 K, 34002 kPa	1008.3 kg/m3
303.15 K, 34011 kPa	1008.3 kg/m3
303.15 K, 34016 kPa	1008.3 kg/m3
303.15 K, 34028 kPa	1008.4 kg/m3
303.15 K, 34041 kPa	1008.4 kg/m3
303.15 K, 34057 kPa	1008.4 kg/m3
303.15 K, 34070 kPa	1008.3 kg/m3
303.15 K, 34166 kPa	1008.4 kg/m3
303.15 K, 34178 kPa	1008.6 kg/m3
303.15 K, 34182 kPa	1008.4 kg/m3
303.15 K, 34186 kPa	1008.5 kg/m3
303.15 K, 34190 kPa	1008.5 kg/m3
303.15 K, 34194 kPa	1008.5 kg/m3
303.15 K, 34195 kPa	1008.6 kg/m3
303.15 K, 34196 kPa	1008.5 kg/m3 and 1008.4 kg/m3
303.15 K, 34197 kPa	1008.5 kg/m3
303.15 K, 34198 kPa	1008.4 kg/m3
303.15 K, 34425 kPa	1008.7 kg/m3
303.15 K, 34426 kPa	1008.6 kg/m3
303.15 K, 34427 kPa	1008.6 kg/m3
303.15 K, 34428 kPa	1008.6 kg/m3
303.15 K, 34430 kPa	1008.8 kg/m3 and 1008.6 kg/m3
303.15 K, 34431 kPa	1008.7 kg/m3
303.15 K, 34432 kPa	1008.8 kg/m3
303.15 K, 34434 kPa	1008.7 kg/m3 and 1008.6 kg/m3
303.16 K, 193.7 kPa	988.5 kg/m3 and 988.4 kg/m3
303.16 K, 193.9 kPa	988.4 kg/m3
303.16 K, 194.1 kPa	988.5 kg/m3 and 988.4 kg/m3
303.16 K, 194.3 kPa	988.6 kg/m3 and 988.4 kg/m3
303.16 K, 194.4 kPa	988.6 kg/m3
303.16 K, 195.5 kPa	988.4 kg/m3
303.16 K, 195.6 kPa	988.5 kg/m3
303.16 K, 195.7 kPa	988.5 kg/m3
303.16 K, 196.9 kPa	988.5 kg/m3
303.16 K, 197.4 kPa	988.5 kg/m3 and 988.4 kg/m3
303.16 K, 197.6 kPa	988.4 kg/m3
303.16 K, 197.7 kPa	988.5 kg/m3
303.16 K, 198.1 kPa	988.5 kg/m3
303.16 K, 199.6 kPa	988.5 kg/m3
303.16 K, 200 kPa	988.5 kg/m3
303.16 K, 200.2 kPa	988.6 kg/m3
303.16 K, 200.3 kPa	988.4 kg/m3
303.16 K, 200.5 kPa	988.5 kg/m3
303.16 K, 200.7 kPa	988.4 kg/m3
303.16 K, 201 kPa	988.5 kg/m3
303.16 K, 201.2 kPa	988.5 kg/m3
303.16 K, 201.4 kPa	988.6 kg/m3 and 988.3 kg/m3
303.16 K, 201.6 kPa	988.4 kg/m3
303.16 K, 201.9 kPa	988.5 kg/m3
303.16 K, 202.2 kPa	988.5 kg/m3
303.16 K, 202.8 kPa	988.5 kg/m3
303.16 K, 202.9 kPa	988.5 kg/m3
